This note sets out measurements from US5872115A, “2-ureido-benzamide derivatives” (Grelan Pharmaceutical Co. Ltd., priority 1995, dated 1999).

The test system of one data set is ACAT of HepG2 microsome. Kind of data set: In-vitro test using Hep G2 microsome (ACAT inhibition). In kind it is biochemical, human. The procedure:
(1) In-vitro Test Using Hep G2 Microsome
ACAT enzyme fraction was prepared from microsome of human derived hepatoma Hep G2 cell according to Sandra's method [Journal of Lipid Research, 27, 875 (1986)].
Microsome was suspended at a concentration of 200 μg protein/20 μl in 0.1M phosphate buffer solution (pH7.4) and the suspension was preincubated at 37° C. for 5 minutes after addition of 10 μl of each test compound dissolved in 0.1M phosphate buffer solution containing bovine serum albmin (BSA). Then, the reaction was initiated by the addition of 5 nmoles of labeled [^14 C]-oleoyl-CoA dissolved in 20 μl of the said phosphate buffer solution containing BSA and the reaction was stopped by the addition of 20 μl of 2N HCl after 10 minutes. [^14 C] cholesterol-oleate formed was separated by thin-layer chromatography and the radioactivity was counted with liquid scintillation counter.
(§1) ACAT inhibitory activities of the test compounds were shown as IC50 values.

The target of the next data set is T1, ACAT of THP-1 cells (Homo sapiens, UniProt P35610).
T1 construct: differentiated into macrophage-like cells by phorbol ester; endogenous in cells; host or cells: THP-1 (human leukemia), intact cells differentiated by phorbol ester
T1 sequence (P35610 1-550): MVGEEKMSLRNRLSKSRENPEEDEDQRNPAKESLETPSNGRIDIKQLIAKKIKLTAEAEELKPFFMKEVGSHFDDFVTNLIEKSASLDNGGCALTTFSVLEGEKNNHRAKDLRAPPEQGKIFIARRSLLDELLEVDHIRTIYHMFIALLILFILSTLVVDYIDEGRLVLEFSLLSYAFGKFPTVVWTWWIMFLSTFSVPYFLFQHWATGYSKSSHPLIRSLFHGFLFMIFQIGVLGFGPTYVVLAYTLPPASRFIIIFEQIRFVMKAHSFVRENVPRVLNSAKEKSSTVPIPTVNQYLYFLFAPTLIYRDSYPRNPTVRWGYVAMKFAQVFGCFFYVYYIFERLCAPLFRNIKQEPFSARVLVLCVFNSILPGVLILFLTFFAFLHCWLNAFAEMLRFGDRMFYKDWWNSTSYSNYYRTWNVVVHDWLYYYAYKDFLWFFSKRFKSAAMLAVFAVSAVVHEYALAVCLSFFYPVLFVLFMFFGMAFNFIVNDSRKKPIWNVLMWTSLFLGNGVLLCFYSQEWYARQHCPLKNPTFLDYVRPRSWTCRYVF
In words: In-vitro test using THP-1 intact cell (ACAT inhibition). In kind it is cell-based. The settings on record: read-out: IC50 THP1 (intact cell). The procedure:
(2) In-vitro Test Using THP-1 Intact Cell
About 2 million cells of human leukemia cell line, THP-1 were seeded in a well with 2 ml of medium and differentiated into macrophage-like cells by phorbol ester. Then, the cells were washed with phosphate-buffered saline (PBS) solution and the medium was replaced by fresh medium supplemented with 10% of lipoprotein-deficient serum. After the addition of each test compound dissolved in dimethyl sulfoxide and 100 μg protein-containing human low density lipoprotein (LDL), the reaction was initiated by the addition of 10 nmoles of labeled [^14 C]oleic acid and 10 nmoles of oleic acid complexed with BSA in PBS solution. After 22 hours, the reaction was stopped by removal the medium and CHCl3 -MeOH (2:1) were added to the cell suspension in order to extract lipids.
Intracellular [^14 C] cholesterol-oleate formed was separated by thin-layer chromatography and the radioactivity was counted with lipid scintillation counter.
as §1

Data set [1] is described as follows: Acute toxicity, male ICR strain mouse. In kind it is in vivo. The settings on record: 1000 mg/kg orally, seven days after administration. How it is done: (1) Acute toxicity: Nine compounds (Example Nos. 1, 2, 5, 6, 12, 19, 28, 31 and 45) were tested by using male ICR strain mouse weighing 23.0±0.7 g.
For data set [2], the target named is T2, THP-1 microsomal ACAT (Homo sapiens, UniProt P35610).
T2 construct: ACAT enzyme fraction was prepared from microsome of human leukemia THP-1 cell; endogenous in cells; host or cells: THP-1 (human leukemia), microsomes
T2 sequence (P35610 1-550): T1 sequence (P35610 1-550)
In words: In vitro test using THP-1 microsome (ACAT inhibition). In kind it is biochemical. The settings on record: THP-1 microsome; read-out: IC50 THP1 microsome.
Protocol: (4) In Vitro Test Using THP-1 Microsome
Then, the reaction was initiated by the addition of 5 nmoles of labeled [^14 C] oleoyl-CoA dissolved in 20 μl of said phosphate buffer solution containing BSA and the reaction was stopped by the addition of 20 μl of 2N HCl after 10 minutes. [^14 C] cholesterol-oleate formed was separated by thin-layer chromatography and the radioactivity was counted with liquid scintillation counter.

The target in data set [3] is T2, THP-1 microsomal ACAT. In words: Bioavailability assessment of ACAT inhibitors by their ex vivo activity (serum of dosed mice on THP-1 microsomal ACAT). In kind it is in vivo. The settings on record: female mice, 30 mg/kg per os, 1% CMC-Na 0.2% Tween 80; maximum inhibition by serum. The procedure: (5) Bioavailability Assessment of ACAT Inhibitors by Their <<ex vivo>> Activity
[…] Blood samples were collected 0.5, 1, 1.5, 2, 6 hour postdose. Serum were harvested after gentle centrifugation and stored at -20.
The following day, 10 μl serum were preincubated at 37 for 5 minutes with 20 μl of THP-1 microsomal ACAT and then incubated 10 minutes with 20 μl of radiolabeled oleoyl-CoA as described above in method (4). The serum is used instead of the drug solution.
ACAT inhibitory activities of the test compounds were shown as maximum inhibition percentages (Imax).

For the molecule `CCCCNC(=O)Nc1ccccc1C(=O)NCC1CCN(C(c2ccccc2)c2ccccc2)CC1` [Example 2, 2-(N'-n-Butylureido)-N-[(1-diphenylmethylpiperidin-4-yl)methyl]benzamide], the results for the half-maximal inhibitory concentration (IC50) with ACAT of HepG2 microsome and on ACAT of THP-1 cells were 1000 nM and 100 nM, respectively. Moreover, the “macroscopic changes on any organs at autopsy” value (from here on “macroscopic changes”) in data set [1] is “no macroscopic changes were observed”.
In the case of `CCCCCNC(=O)Nc1ccccc1C(=O)NCC1CCN(C(c2ccccc2)c2ccccc2)CC1` [Example 3, 2-(N'-n-Pentylureido)-N-[(1-diphenylmethylpiperidin-4-yl)methyl]benzamide], the figures for the IC50 in the data set on ACAT of HepG2 microsome and on ACAT of THP-1 cells were 900 nM and 100 nM, respectively.
On the same counts, the results for `CCCCCCNC(=O)Nc1ccccc1C(=O)NCC1CCN(C(c2ccccc2)c2ccccc2)CC1` [Example 4, 2-(N'-n-Hexylureido)-N-[(1-diphenylmethylpiperidin-4-yl)methyl]benzamide] are 900 nM and 90 nM.
Turning to `CCCCCCCCNC(=O)Nc1ccccc1C(=O)NCC1CCN(C(c2ccccc2)c2ccccc2)CC1` [Example 6, 2-(N'-n-Octylureido)-N-[(1-diphenylmethylpiperidin-4-yl)methyl]benzamide], the figures for the IC50 in the data set on ACAT of HepG2 microsome and at ACAT of THP-1 cells were 1600 nM and 50 nM, respectively. The “macroscopic changes” value in data set [1] was “no macroscopic changes were observed”.
With `CCCCCCCCCCNC(=O)Nc1ccccc1C(=O)NC1CCN(C(c2ccccc2)c2ccccc2)CC1` [Example 12, 2-(N'-n-Decylureido)-N-(1-diphenylmethylpiperidin-4-yl)benzamide], the IC50 (as a rule, the concentration needed to halve the response being measured) with ACAT of HepG2 microsome came out at 8000 nM; on ACAT of THP-1 cells, 700 nM. The “macroscopic changes” value in data set [1] is given as “no macroscopic changes were observed”.
As to `CCCCCCCNC(=O)Nc1ccc(O)cc1C(=O)NCCC(c1ccccc1)c1ccccc1` [Example 19, 2-(N'-n-Heptylureido)-5-hydroxy-N-(3,3-diphenylpropyl)benzamide], the IC50 with ACAT of HepG2 microsome was found to be 3600 nM; at ACAT of THP-1 cells, 100 nM. In addition, the “macroscopic changes” value in data set [1] is on record as “no macroscopic changes were observed”.
Consider `CCCCCCCNC(=O)Nc1ccccc1C(=O)NCCC1CCN(C(c2ccccc2)c2ccccc2)CC1` [Example 28, 2-(N'-n-Heptylureido)-N-[2-(1-diphenylmethylpiperidin-4-yl)ethyl]benzamide], for which the IC50 worked out at 1200 nM in the data set on ACAT of HepG2 microsome and 100 nM on ACAT of THP-1 cells. Moreover, in data set [1], the “macroscopic changes” value is “no macroscopic changes were observed”.
Consider `CCCCCNC(=O)Nc1ccccc1C(=O)NCCC1CCN(C(c2ccccc2)c2ccccc2)CC1` [Example 29, 2-(N'-n-Pentylureido)-N-[2-(1-diphenylmethylpiperidin-4-yl)ethyl]benzamide], for which the IC50 in the data set with ACAT of HepG2 microsome was 1600 nM; at ACAT of THP-1 cells, 200 nM.
As to `CCCCCCNC(=O)Nc1ccccc1C(=O)NCCC1CCN(C(c2ccccc2)c2ccccc2)CC1` [Example 30, 2-(N'-n-Hexylureido)-N-[2-(1-diphenylmethylpiperidin-4-yl)ethyl]benzamide], the half-maximal inhibitory concentration (IC50) with ACAT of HepG2 microsome is 1200 nM; on ACAT of THP-1 cells, 200 nM.
With `CCCCCCCNC(=O)Nc1ccc(N(C)C)cc1C(=O)NC1CCN(C(c2ccccc2)c2ccccc2)CC1` [Example 31, 2-(N'-n-Heptylureido)-5-dimethylamino-N-(1-diphenylmethylpiperidin-4-yl)-benzamide], the IC50 in the data set with ACAT of HepG2 microsome came out at 800 nM; on ACAT of THP-1 cells it was 200 nM. Moreover, the “macroscopic changes” value in data set [1] is recorded as “no macroscopic changes were observed”.
Regarding `CCCCCCCNC(=O)Nc1ccccc1C(=O)NC1CCN(C(c2ccccc2)c2ccccc2)CC1` [Example 45, 2-(N'-n-Heptylureido)-N-(1-diphenylmethylpiperidin-4-yl)benzamide], the results for the concentration for half-maximal inhibition (IC50) in the data set on ACAT of HepG2 microsome and on ACAT of THP-1 cells were 2800 nM and 800 nM, respectively. Besides, the “macroscopic changes” value in data set [1] is “no macroscopic changes were observed”.
On to `CCCCCCCNC(=O)Nc1ccc(-n2cccn2)cc1C(=O)NCC1CCN(C(c2ccccc2)c2ccccc2)CC1` [Example 84, 2-(N'-n-Heptylureido)-5-(pyrazol-1-yl)-N-[(1-diphenylmethylpiperidin-4-yl)-methyl]-benzamide], for which the half-inhibitory concentration (IC50) on THP-1 microsomal ACAT [2] is 100 nM. Further, the “Imax Ex vivo” value at THP-1 microsomal ACAT [3] came out at 5.75%.
On the same counts, the results for `CCCCCCCNC(=O)Nc1ccc(N2CCCC2)cc1C(=O)NCC1CCN(C(c2ccccc2)c2ccccc2)CC1` [Example 85, 2-(N'-n-Heptylureido)-5-(pyrrolidin-1-yl)-N-[(1-diphenylmethylpiperidin-4-yl)methyl]-benzamide] are 60 nM and 11.33%.
For `CCCCCCCNC(=O)Nc1ccc(N(C)C(C)=O)cc1C(=O)NCC1CCN(C(c2ccccc2)c2ccccc2)CC1` [Example 91, 5-(N-Acetyl-N-methyl)amino-2-(N'-n-heptylureido)-N-[(1-diphenylmethylpiperidin-4-yl)-methyl]benzamide], in that order: 80 nM and 61.47%.
For the molecule `CCCCCCCNC(=O)Nc1ccc(N(C)C)cc1C(=O)NCC1CCN(C(c2ccc(F)cc2)c2ccc(F)cc2)CC1` [Example 93, 2-(N'-n-Heptylureido)-5-dimethylamino-N-[[1-bis(4-fluorophenyl)methylpiperidin-4-yl]-methyl]benzamide], at THP-1 microsomal ACAT [2], the IC50 worked out at 40 nM. Further, the “Imax Ex vivo” value at THP-1 microsomal ACAT [3] came out at 24.17%.
On the same counts, the results for `CCCCCCCNC(=O)Nc1ccc(N(C)C)cc1C(=O)NCC1CCN(C(c2ccc(OC)cc2)c2ccc(OC)cc2)CC1` [Example 94, 2-(N'-n-Heptylureido)-5-dimethylamino-N-[[1-bis(4-methoxyphenyl)methylpiperidin-4yl]methyl]benzamide] are 100 nM and 28.35%.
For `CCCCCCCNC(=O)Nc1ccc(N(C)C)cc1C(=O)NCC1CCN(Cc2ccccc2-c2ccccc2)CC1` [Example 96, 2-(N'-n-Heptylureido)-5-dimethylamino-N-[1-(2-biphenylmethylpiperidin-4-yl)methyl]-benzamide], in that order: 80 nM and 20.45%.
On the same counts, the results for `CCCCCNC(=O)Nc1ccc(N(C)C)cc1C(=O)NCC1CCN(C(c2ccccc2)c2ccccc2)CC1` [Example 100, 5-Dimethylamino-2-(N'-n-pentylureido)-N-[(1-diphenylmethylpiperidin-4-yl)methyl]benzamide] are 40 nM and 39.01%.
Turning to `CCCCNC(=O)Nc1ccc(S(C)(=O)=O)cc1C(=O)NCC1CCN(C(c2ccccc2)c2ccccc2)CC1` [Example 111 (b), 2-(N'-n-butylureido)-5-methylsulfonyl-N-[(1-diphenylmethylpiperidin-4-yl)-methyl]benzamide], at THP-1 microsomal ACAT [2], the IC50 came to 90 nM. The “Imax Ex vivo” value on THP-1 microsomal ACAT [3] was determined as 63.56%.
